Results from patent US10768179B2, “Method for predicting responsiveness to cancer treatment using p300-inhibiting compound” (National Cancer Center, priority 2014, dated 2020).

Legend:
[1] = test system: CBP-mutated lung cancer cells and lymphoma cells; assay: Sensitivity (survival rate, IC50) of cancer cell lines to p300 inhibitor C646; format: cell-based
Method: A549, H1299, H157, SQ5, H1703, LK2, H520 (NSCLC), RL, Loucy, RC-K8, U2932, Ramos, Farage, SUP-T1, WSU-NHL, VAL, SUDHL5, Jurkat, TE8, and TE10 were separately cultured in RPMI-1640 or DMEM supplemented with 10% fetal bovine serum (FBS). MRC-5 cells (normal fibroblasts), HEK293T cells (immortalized renal epithelial cells), and RPE-1 cells (immortalized retinal epithelial cells) were separately cultured in DMEM supplemented with 10% FBS.
The viability was determined by examining intracellular ATP level using CellTiter-Glo Luminescent Cell Viability Assay kit (Promega Corp.). Each cancer cell line was transfected with siRNA (50 nM) using Lipofectamine RNAiMAX (Invitrogen Corp.). Two days later, the cells were trypsinized, counted, and reseeded in specified numbers in 96-well plate. In order to measure the cell viability, CellTiter-Glo Luminescent Cell Viability Assay kit (Promega Corp.) was added to the cells, and […] was measured using Envision (PerkinElmer, Inc.).

CBP-mutated cancer cells = assay: Apoptosis analysis by Annexin V/PI staining after C646 treatment; format: cell-based; conditions: 48 hours and 96 hours after C646 treatment; FIG. 5B
Method: In order to detect apoptotic cells by flow cytometry, Annexin V-FITC/PI apoptosis detection kit (F. Hoffmann-La Roche, Ltd.) was used according to the manufacturer's instruction manual. Briefly, the cell pellet was suspended in a 1× binding buffer and incubated with Annexin V-FITC and PI for 20 minutes in the dark. Subsequently, the fluorescence of the cells was analyzed by flow cytometry.

Structure (SMILES): CC1=NN(c2ccc(C(=O)O)cc2)C(=O)/C1=C\c1ccc(-c2cc(C)c(C)cc2[N+](=O)[O-])o1 [C646]
- IC50 value for C646 ([1]; CBP-mutated vs CBP-proficient cancer cells, Student's t test, p<0.01, FIGS. 3B and 3D): low tendency relative to CBP-proficient cancer cells
- sensitivity to C646 (survival rates) ([1]; CBP-mutated vs CBP-proficient lung cancer and lymphoma cell lines, FIGS. 3A and 3C): higher sensitivity of the CBP-mutated cancer cells to C646 than that of the CBP-proficient cancer cells
- induction of apoptosis (Annexin V stainability) (CBP-mutated cancer cells): specifically suppresses the growth of CBP-mutated cancer cells by inducing apoptosis
